Assay results as given in ChEMBL document CHEMBL1123187, “3-Hydroxy-3-methylglutaryl-coenzyme A reductase inhibitors. 5. 6-(Fluoren-9-yl)- and 6-(fluoren-9-ylidenyl)-3,5-dihydroxyhexanoic acids and their lactone derivatives” (J Med Chem, 1986).

biological target: T1, 3-hydroxy-3-methylglutaryl-coenzyme A reductase (Rattus norvegicus) (UniProt P51639); assay: compound was tested for its ability to inhibit solubilized, purified rat liver HMG-CoA reductase, relative to compactin(100)
T1 sequence (whole entry): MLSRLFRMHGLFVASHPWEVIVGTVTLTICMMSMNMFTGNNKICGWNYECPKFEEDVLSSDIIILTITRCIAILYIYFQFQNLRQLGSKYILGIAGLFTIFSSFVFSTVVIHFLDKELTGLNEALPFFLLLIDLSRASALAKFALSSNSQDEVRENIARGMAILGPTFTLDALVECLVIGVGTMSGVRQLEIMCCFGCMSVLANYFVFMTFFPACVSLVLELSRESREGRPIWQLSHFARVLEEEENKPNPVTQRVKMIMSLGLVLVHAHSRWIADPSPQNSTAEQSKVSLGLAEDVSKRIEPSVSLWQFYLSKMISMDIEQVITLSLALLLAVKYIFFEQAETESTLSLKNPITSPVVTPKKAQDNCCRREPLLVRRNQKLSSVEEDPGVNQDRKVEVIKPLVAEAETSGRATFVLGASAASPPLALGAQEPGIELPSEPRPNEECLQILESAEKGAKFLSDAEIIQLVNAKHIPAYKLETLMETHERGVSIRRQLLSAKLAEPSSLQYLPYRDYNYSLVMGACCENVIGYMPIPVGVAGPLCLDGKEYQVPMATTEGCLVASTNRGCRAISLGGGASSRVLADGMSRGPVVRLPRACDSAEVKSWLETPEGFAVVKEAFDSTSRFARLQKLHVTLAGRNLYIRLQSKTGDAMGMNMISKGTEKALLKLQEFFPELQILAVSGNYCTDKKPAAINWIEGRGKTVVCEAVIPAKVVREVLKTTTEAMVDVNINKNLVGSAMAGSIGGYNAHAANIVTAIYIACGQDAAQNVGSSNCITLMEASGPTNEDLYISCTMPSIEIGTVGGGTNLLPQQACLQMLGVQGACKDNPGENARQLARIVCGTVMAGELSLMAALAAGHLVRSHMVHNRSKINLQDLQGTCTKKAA

| SMILES | Relative potency |
| --- | --- |
| Cc1cc(C)cc(-c2cc(C)cc(C)c2/C=C/[C@@H]2C[C@@H](O)CC(=O)O2)c1 | 80 |
| O=C1C[C@H](O)C[C@@H](/C=C/c2c(Cl)cc(Cl)cc2-c2ccccc2)O1 | 26 |
| O=C1C[C@H](O)C[C@@H](/C=C/c2c(Cl)cc(Cl)cc2-c2ccc(F)cc2)O1 | 100 |
| O=C1C[C@H](O)C[C@@H](/C=C/c2ccccc2-c2ccccc2)O1 | 0.63 |

biological target: T2, 3-hydroxy-3-methylglutaryl-coenzyme A reductase (Rattus norvegicus, UniProt P51639); assay: Compound was tested in vitro for its ability to inhibit rat liver HMG-CoA reductase
T2 sequence (P51639 whole entry): T1 sequence (whole entry)

| SMILES | IC50 [nM] |
| --- | --- |
| Cc1cc(C)c2c(c1)-c1ccccc1/C2=C\[C@@H]1C[C@@H](O)CC(=O)O1 | 750 |
| Cc1cc(C)c2c(c1)-c1cc(C)cc(C)c1C2=C[C@@H]1C[C@@H](O)CC(=O)O1 | 830 |
| O=C1C[C@H](O)CC(CC2c3cc(F)ccc3-c3cc(Cl)cc(Cl)c32)O1 (stereo partly specified) | 85 |

biological target: T1, 3-hydroxy-3-methylglutaryl-coenzyme A reductase (Rattus norvegicus); assay: Compound was tested for its ability to inhibit solubilized, purified rat liver HMG-CoA reductase, relative to compactin(100)

| SMILES | Relative potency |
| --- | --- |
| Cc1cc(C)c2c(c1)-c1ccccc1/C2=C\[C@@H]1C[C@@H](O)CC(=O)O1 | 1.9 |
| Cc1cc(C)c2c(c1)-c1cc(C)cc(C)c1C2=C[C@@H]1C[C@@H](O)CC(=O)O1 | 1.7 |
| O=C1C[C@H](O)CC(CC2c3cc(F)ccc3-c3cc(Cl)cc(Cl)c32)O1 (stereo partly specified) | 14 |
| O=C1C[C@H](O)C[C@@H](C=C2c3ccccc3-c3ccccc32)O1 | 1.5 |
